From PMC3534098 (PLoS ONE, 2012)

tested on: M. bovis BCG resistant mutants; type: cell-based, Mycobacterium bovis BCG

SMILES	viability of M. bovis BCG mutants raised against other IP family members
Cc1ccc2nc(C)c(C(=O)NCc3cccs3)n2c1 [IP 1]	viable
Cc1ccc2nc(C)c(C(=O)NCc3ccc(Cl)nc3)n2c1 [IP 4, N-((6-Chloropyridin-3-yl)methyl)-2,6-dimethylimidazo[1,2-a]pyridine-3-carboxamide]	viable
Cc1ccc2nc(C)c(C(=O)NCc3ccc(C(F)(F)F)cc3)n2c1 [IP 3, 2,6-Dimethyl-N-(4-(trifluoromethyl)benzyl)imidazo[1,2-a]pyridine-3-carboxamide]	viable
